US9200008B2 (ASKA PHARMACEUTICAL CO., LTD., priority 2010, dated 2015)

Tested on: Human prostate cancer cell lines (PC-3 cells)
Test: Measurement of cell death-inducing activity (Test Example 1)
Assay type: cell-based
Settings: PC-3, 48 h, 48 hours after addition, tested at 10, 1, 0.1, 0.025 and 0.00625 μmol/L, qualitative evaluation of 10 fields, read-out: Concentration showing the cell death-inducing activity (cell death-inducing rate not less than 40%)
How it was run: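 Compound treatment lasted 48 h at 10 to 0.00625 μmol/L (five levels, DMSO as control) on PC-3 cells pre-cultured 48 h at 37 °C, 5% CO2 after seeding at 1×10^5 cells/well. A cell death-inducing rate of 40% or more counted as active.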

Row | SMILES | minimal effective concentration [µM]
1 | O=C(N/N=C/c1ccc(O)c(F)c1)c1cc(-c2ccc(Cl)cc2Cl)n[nH]1 [Example 21-18] | 10
2 | Cc1cc(/C=N/NC(=O)c2cc(-c3ccc(Cl)cc3)n[nH]2)cc(C)c1O [Example 21-21] | 1
3 | COc1cc(Cl)ccc1-c1cc(C(=O)N/N=C/c2ccc3c(c2)ncn3C)n(C)n1 [Example 21-25] | 0.1
4 | COc1ccc(/C=N/NC(=O)c2cc(-c3ccccc3Cl)n[nH]2)cc1O [Example 22-1, 5-(2-Chlorophenyl)-2H-pyrazole-3-carboxylic acid [1-(3-hydroxy-4-methoxyphenyl)methylidene]hydrazide] | 10
5 | COc1ccc(/C=N/NC(=O)c2cc(-c3ccccc3C)n[nH]2)cc1O [Example 22-3] | 1
6 | COc1ccccc1-c1cc(C(=O)N/N=C/c2cc(C)c(O)c(C)c2)[nH]n1 [Example 22-6] | 1
7 | COc1ccc(/C=N/NC(=O)c2cc(-c3ccc(Cl)cc3OC)n[nH]2)cc1O [Example 22-8] | 1
8 | COc1cc(Cl)ccc1-c1cc(C(=O)N/N=C/c2cc(C)c(O)c(C)c2)[nH]n1 [Example 22-9] | 0.1
9 | COc1cc(Cl)ccc1-c1cc(C(=O)N/N=C/c2ccc3c(c2)ncn3C)[nH]n1 [Example 22-10] | 0.1
10 | COc1ccc(/C=N/NC(=O)c2sc(-c3ccc(Cl)cc3Cl)nc2C)cc1O [Example 23-1, 2-(2,4-Dichlorophenyl)-4-methylthiazole-5-carboxylic acid[1-(3-hydroxy-4-methoxyphenyl)methylidene]hydrazide] | 10
11 | COc1ccc(/C=N/NC(=O)c2sc(-c3ccccc3Cl)nc2C)cc1O [Example 23-2] | 0.1
12 | COc1ccc(/C=N/NC(=O)c2sc(-c3ccccc3Cl)nc2C)c(Cl)c1O [Example 23-4] | 0.1
13 | COc1cc(/C=N/NC(=O)c2sc(-c3ccccc3Cl)nc2C)cc(O)c1OC [Example 23-5] | 10
14 | COc1ccc(/C=N/NC(=O)c2sc(-c3ccc(Cl)cc3)nc2C)cc1O [Example 23-7] | 0.1
15 | Cc1cc(/C=N/NC(=O)c2sc(-c3ccc(Cl)cc3)nc2C)cc(C)c1O [Example 23-8] | 1
16 | Cc1cc(/C=N/NC(=O)c2sc(-c3ccc(Cl)cc3)nc2C)ccc1O [Example 23-11] | 10
17 | COc1ccc(/C=N/NC(=O)c2sc(-c3ccccc3C)nc2C)cc1O [Example 23-12] | 0.1
18 | COc1ccc(/C=N/NC(=O)c2sc(-c3ccccc3C(F)(F)F)nc2C)cc1O [Example 23-13] | 1
19 | COc1ccc(/C=N/NC(=O)c2sc(-c3ccccc3OC)nc2C)cc1O [Example 23-14] | 0.1
20 | COc1ccc(/C=N/NC(=O)c2sc(-c3cccc(Cl)c3Cl)nc2C)cc1O [Example 23-15] | 0.1
21 | COc1ccc(/C=N/NC(=O)c2sc(-c3ccc(Cl)cc3)nc2C(F)(F)F)cc1O [Example 23-18] | 10
22 | Cc1cc(/C=N/NC(=O)c2sc(-c3ccc(Cl)cc3)nc2C(F)(F)F)cc(C)c1O [Example 23-19] | 10
23 | COc1ccc(/C=N/NC(=O)c2sc(-c3ccc(Cl)cc3)nc2C(C)(C)C)cc1O [Example 23-20] | 10
24 | Cc1cc(/C=N/NC(=O)c2sc(-c3ccc(Cl)cc3)nc2C(C)(C)C)cc(C)c1O [Example 23-21] | 10
25 | COc1ccc(/C=N/NC(=O)c2sc(-c3cccc(C)c3C)nc2C)cc1O [Example 23-22] | 1
26 | Cc1cccc(-c2nc(C)c(C(=O)N/N=C/c3cc(C)c(O)c(C)c3)s2)c1C [Example 23-23] | 1
27 | COc1ccc(/C=N/NC(=O)c2sc(-c3cccc(OC)c3OC)nc2C)cc1O [Example 23-24] | 10
28 | COc1ccc(/C=N/NC(=O)c2sc(-c3ncccc3C)nc2C)cc1O [Example 23-26] | 1
